Source: publication PMC9930120 (Journal of Chemical Information and Modeling, 2023)
Like-named read-outs stand apart in the source and are kept apart here.

Experiments:
human CB2 [1] = target: T1, human CB2 (Homo sapiens, UniProt P34972); test: biochemical; format: binding; conditions: for CB2 Ki (μM, 95% CI) / CB2 pKi ± SEM / Ki: [3H]CP-55,940 displacement, CHO-K1 membranes
Method: The compounds selected for the in vitro binding assay were purchased via MolPort, SIA, Riga, Latvia (Supporting Information S2). Membrane preparations from CHO-K1 cells expressing the human CB2 (ChemiSCREEN Membrane Preparation Recombinant Human CB2 Cannabinoid Receptor. Merck, USA) were incubated in duplicate with 0.8 nM [^3H]CP-55,940 (specific activity: 101 Ci/mmole, PerkinElmer, USA) in a 50 mM Tris–HCl, pH = 7.4 buffer supplemented with 2.5 mM EDTA, 5 mM MgCl2, 0.5 mg/mL BSA and increasing concentrations of the compounds tested. Compounds were dissolved in 50% DMSO and added to the reaction mixture at 10 concentrations equally spaced on a log scale (10^–10–10^–4.5 M). The final DMSO concentration was 5%. […] The reaction mixture (500 μL) was incubated for 1.5 h at 30 °C. Before harvesting, Brandel Whatman GF/B Filter Paper was presoaked with 0.5% polyethylenimine buffer for 30 min and then washed with 2 mL of 50 mM Tris–HCl buffer (pH = 7.4) containing 0.5% BSA to minimize nonspecific binding. The reaction was terminated by depositing the samples onto the filter paper with the Brandel M–24 Cell Harvester. Samples were then rapidly washed three times with 2 mL of wash buffer (50 mM Tris–HCl pH 7.4, 2.5 mM EDTA, 5 mM MgCl2, 0.5 mg/mL BSA) to separate the bound radioligand from free. Filters were then air-dried for 1.5 h at 60 °C. After drying, filter discs were placed on a flexible 24-well plate and 500 μL of EcoScint-20 scintillant (PerkinElmer, USA) was added to each well. Plates were counted (2 min per well) in a Trilux MicroBeta counter (PerkinElmer, USA). Data were analyzed with GraphPad Prism 5.0 software.

human CB1 receptors = target: T2, human CB1 receptors (Homo sapiens, UniProt P21554); test: CB1 radioligand displacement assay ([3H]CP-55,940); format: binding; conditions: for CB1 Ki (μM, 95% CI) / CB1 pKi ± SEM: [3H]CP-55,940 displacement, Chem-1 membranes
T2 construct: purchased Merck; host or cells: Chem-1
T2 sequence (P21554 whole entry): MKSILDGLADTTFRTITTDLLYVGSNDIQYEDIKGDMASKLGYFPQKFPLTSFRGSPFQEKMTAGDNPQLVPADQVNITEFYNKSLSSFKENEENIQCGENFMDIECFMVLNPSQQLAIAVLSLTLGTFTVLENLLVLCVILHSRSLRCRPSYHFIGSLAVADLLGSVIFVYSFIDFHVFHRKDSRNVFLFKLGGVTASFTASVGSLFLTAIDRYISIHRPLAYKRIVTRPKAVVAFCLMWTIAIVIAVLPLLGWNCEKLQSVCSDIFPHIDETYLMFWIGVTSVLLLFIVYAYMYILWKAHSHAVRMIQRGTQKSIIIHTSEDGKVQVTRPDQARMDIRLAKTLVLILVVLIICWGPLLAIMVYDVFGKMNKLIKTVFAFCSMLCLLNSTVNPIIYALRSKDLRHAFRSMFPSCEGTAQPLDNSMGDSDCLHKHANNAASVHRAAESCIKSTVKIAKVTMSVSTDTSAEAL
Method: Membrane preparations from Chem-1 cells expressing the human CB1 receptors (ChemiSCREEN CB1 Cannabinoid Receptor Membrane Preparation. Merck, USA) were incubated in duplicate with 1 nM [^3H]CP-55,940 (specific activity: 108.5 Ci/mmole, PerkinElmer, USA) in a 50 mM Tris–HCl, pH = 7.4 buffer supplemented with 1 mM CaCl2, 5 mM MgCl2, 0.2% BSA and increasing concentrations of the compounds tested. Compounds were dissolved in 50% DMSO and added to the reaction mixture at 10 concentrations equally spaced on a log scale (10^–10–10^–4.5 M). The final DMSO concentration was 5%. […] The reaction mixture (500 μL) was incubated for 1.5 h at 30 °C. Before harvesting, Brandel Whatman GF/B Filter Paper was presoaked with 0.5% polyethylenimine buffer for 30 min and then washed with 2 mL of 50 mM Tris–HCl buffer (pH = 7.4) containing 0.5% BSA to minimize nonspecific binding. The reaction was terminated by depositing the samples onto the filter paper with the Brandel M-24 Cell Harvester. Samples were then rapidly washed three times with 2 mL of wash buffer (50 mM Tris–HCl pH 7.4, 500 mM NaCl, and 5 mM MgCl2) to separate the bound radioligand from the free one. The rest of the procedure was the same as for CB2.

human CB2 [2] = target: T1, human CB2; test: CB2 [35S]GTPγS assay; format: biochemical; set-up: purchased PerkinElmer ES-111-M400UA; host or cells: CHO-K1; conditions: compounds at 10 μM, 100 nM CP-55,940 as stimulating ligand
Method: Ten micromolar concentrations of each compound were incubated in triplicate with membrane preparations from CHO-K1 cells expressing the human CB2 receptor (0.5 μg per well) (PerkinElmer, Cat. No. ES-111-M400UA) in an assay buffer containing 50 mM Tris–HCl, pH = 7.4, 0.2 mM EGTA, 3 mM MgCl2, 100 mM NaCl, 30 μM GDP and 1 mg/mL BSA) in the presence of 0.08 nM [^35S] guanosine 5′-[γ-thio]triphosphate ([^35S]GTPγS) (specific activity: 1250 Ci/mmole, PerkinElmer). Nonspecific binding was determined with 100 μM of unlabeled GTPγS. CP-55,940 (100 nM) was used as stimulating ligand. The final DMSO concentration in the assay was 5%. The reaction mixture was incubated for 60 min at 30 °C. Next, the samples were deposited under vacuum with the FilterMate Harvester (PerkinElmer, USA) onto Unifilter GF/B Plates (PerkinElmer, USA) presoaked with wash buffer (50 mM Tris–HCl, pH = 7.4). The samples were then rapidly washed with 2 mL of wash buffer. Filter plates were dried for 30 min at 50 °C and 40 μL of MicroScint PS (PerkinElmer, USA) scintillation fluid was added to each well. Radioactivity was counted in a Trilux MicroBeta^2 counter (PerkinElmer, USA). Data were analyzed with GraphPad Prism 5.0 software. Results were expressed as percent of basal [^35S]GTPγS binding in the presence of CP-55,940 from three separate experiments. Basal binding was set to 100%.

human CB2 [3] = target: T1, human CB2; conditions: cited from earlier work
[4] = read-out: CB2 pKi ± SEM (converted)

T1 sequence (P34972 whole entry): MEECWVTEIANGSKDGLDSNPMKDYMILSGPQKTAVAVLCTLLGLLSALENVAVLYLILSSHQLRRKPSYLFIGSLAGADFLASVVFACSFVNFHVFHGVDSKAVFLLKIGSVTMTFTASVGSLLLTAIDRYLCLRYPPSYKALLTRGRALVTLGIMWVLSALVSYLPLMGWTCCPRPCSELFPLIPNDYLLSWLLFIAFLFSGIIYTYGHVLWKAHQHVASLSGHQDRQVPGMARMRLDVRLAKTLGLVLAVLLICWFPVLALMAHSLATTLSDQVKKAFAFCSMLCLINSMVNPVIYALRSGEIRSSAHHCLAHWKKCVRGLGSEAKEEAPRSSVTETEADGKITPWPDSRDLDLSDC

Question: Which “CB2 Ki (μM, 95% CI)” value (human CB2 [1]) does the source give for `COCc1cc2nn(CC(=O)NCc3ccccc3Cl)c(=O)n2c(-c2ccccc2)n1` [AS-14] here?
Answer: no activity

Question: And the “CB2 pKi ± SEM” value (human CB2 [1])?
Answer: no activity

Question: For `CCOC(=O)c1ccc(NC(=O)Cn2c(=O)nc(-c3ccccc3)c3cc(Cl)ccc32)cc1` [AS-2], which “CB2 Ki (μM, 95% CI)” value (human CB2 [1]) is on record?
Answer: no activity

Question: And the “CB2 pKi ± SEM” value (human CB2 [1])?
Answer: no activity

Question: With `Cc1ccccc1-c1cc(C(=O)N2CCN(Cc3ccc4c(c3)OCO4)CC2)c2ccccc2n1` [AS-5] as the molecule, how does the Ki (human CB2 [1]; [4]) read?
Answer: 0.209 µM

Question: And the “CB1 Ki (μM, 95% CI)” value (human CB1 receptors)?
Answer: no activity

Question: What about the “CB1 pKi ± SEM” value (human CB1 receptors) of the same molecule?
Answer: no activity

Question: And the CB2 intrinsic activity (human CB2 [2])?
Answer: CB2 antagonists

Question: What does the source list for `COc1ccc(C(=O)/C=C(\C(=O)c2ccccc2)c2ccccc2)cc1CN1CCOCC1` [AS-7]?
Answer: selectivity index for CB2 (Ki-CB1/Ki-CB2) (human CB2 [1]): > 40; Ki (human CB2 [1]; CB2 Ki (μM, 95% CI)): 0.065 µM; Ki (human CB2 [1]; CB2 pKi ± SEM): 0.0661 µM; Ki (human CB1 receptors): 2670 nM; CB1 pKi ± SEM (human CB1 receptors): 5.57 ± 0.9; CB2 intrinsic activity (human CB2 [2]): CB2 antagonists

Question: What does the source list for `COc1cccc(-c2nn(Cn3nc([N+](=O)[O-])cc3C)c(-c3cccc(OC)c3)c2Cl)c1` [AS-9]?
Answer: Ki (human CB2 [1]; [4]): 2.09 µM; CB1 Ki (μM, 95% CI) (human CB1 receptors): no activity; CB1 pKi ± SEM (human CB1 receptors): no activity

Question: For `N#Cc1c(Oc2cccc(OS(=O)(=O)CCCC(F)(F)F)c2)cccc1C(F)(F)F` [BAY 59-3074], which Ki (human CB2 [3]) is on record?
Answer: 45.5 nM

Question: Which Ki (human CB2 [1]; read-out: CB2 Ki (μM, 95% CI)) does the source give for `C[C@H](Sc1nnc2c3ccccc3nc(-c3ccccc3)n12)C(=O)NC[C@@H]1CCCO1` [AS-8] here?
Answer: 6.37 µM

Question: What about the “CB1 Ki (μM, 95% CI)” value (human CB1 receptors) of the same molecule?
Answer: no activity

Question: And the “CB1 pKi ± SEM” value (human CB1 receptors)?
Answer: no activity

Question: Which “CB2 Ki (μM, 95% CI)” value (human CB2 [1]) does the source give for `O=C(NCc1cccs1)c1cccc(Nc2nn3c(=O)c4ccccc4nc3s2)c1` [AS-11] here?
Answer: no activity

Question: And the “CB2 pKi ± SEM” value (human CB2 [1])?
Answer: no activity

Question: Which “CB2 Ki (μM, 95% CI)” value (human CB2 [1]) does the source give for `CN(Cc1ccccn1)C(=O)c1c2ccccc2c2n1CCCN(Cc1ccccc1)C2=O` [AS-15] here?
Answer: no activity

Question: And the “CB2 pKi ± SEM” value (human CB2 [1])?
Answer: no activity

Question: What does the source list for `Cc1cc(C)n(C[C@@H](O)c2ccc(-n3c4c(c5ccccc5c3=O)C(=O)c3ccccc3-4)cc2)n1` [AS-16]?
Answer: CB2 Ki (μM, 95% CI) (human CB2 [1]): no activity; CB2 pKi ± SEM (human CB2 [1]): no activity

Question: What does the source list for `Cc1cc(C(=O)Nc2cccc(C)c2C)c2c(C)nn(Cc3ccccc3)c2n1` [AS-12]?
Answer: CB2 Ki (μM, 95% CI) (human CB2 [1]): no activity; CB2 pKi ± SEM (human CB2 [1]): no activity

Question: What does the source list for `Cc1nn(Cc2ccccc2)c(Cl)c1C(=O)NCc1ccccc1Cn1ccnc1` [AS-10]?
Answer: Ki (human CB2 [1]; read-out: CB2 Ki (μM, 95% CI)): 17.9 µM; Ki (human CB2 [1]; [4]): 18.2 µM

Question: Which “CB2 Ki (μM, 95% CI)” value (human CB2 [1]) does the source give for `Cc1nn(-c2ccccc2)c(C)c1CCc1nn2c(-c3ccccc3F)nnc2s1` [AS-4] here?
Answer: no activity

Question: And the “CB2 pKi ± SEM” value (human CB2 [1])?
Answer: no activity

Question: For `CCCC(C)(C)c1ccc2c(c1)OC(C)(C)[C@@H]1CC=C(C)C[C@@H]21` [JWH-133], which Ki (human CB2 [3]) is on record?
Answer: 3.4 nM

Question: Which “CB2 Ki (μM, 95% CI)” value (human CB2 [1]) does the source give for `Cc1cc(CSc2nnc(-c3nn(Cc4ccccc4)c(=O)c4ccccc34)o2)no1` [AS-6] here?
Answer: no activity

Question: And the “CB2 pKi ± SEM” value (human CB2 [1])?
Answer: no activity

Question: For `CCCCCc1cc(O)c(C/C=C(\C)CCC=C(C)C)c(O)c1` [Cannabigerol], which Ki (human CB2 [3]) is on record?
Answer: 2920 nM

Question: What does the source list for `Cc1sc2nc(SCC(=O)c3ccc4c(c3)N(C)C(=O)CO4)nc(O)c2c1-c1ccccc1` [AS-1]?
Answer: CB2 Ki (μM, 95% CI) (human CB2 [1]): no activity; CB2 pKi ± SEM (human CB2 [1]): no activity

Question: Which Ki (human CB2 [3]) does the source give for `COc1ccc(C(=O)c2c(C)n(CCN3CCOCC3)c3cc(I)ccc23)cc1` [AM-630] here?
Answer: 31.2 nM

Question: Which “CB2 Ki (μM, 95% CI)” value (human CB2 [1]) does the source give for `Cc1nn(-c2ccccc2)c(C)c1C(=O)C(=O)Nc1cc(F)ccc1NC(=O)c1ccccn1` [AS-13] here?
Answer: no activity

Question: What about the “CB2 pKi ± SEM” value (human CB2 [1]) of the same molecule?
Answer: no activity

Question: Which “CB2 Ki (μM, 95% CI)” value (human CB2 [1]) does the source give for `COc1cccc(Oc2c(C)oc3c4c(ccc3c2=O)OCN(Cc2ccccn2)C4)c1` [AS-3] here?
Answer: no activity

Question: What about the “CB2 pKi ± SEM” value (human CB2 [1]) of the same molecule?
Answer: no activity
